Test results taken from patent US7041275B2, “Irrigating fluid” (priority 2001, dated 2006).

What was measured:
[1] = Nitrous oxide concentration in exhaled air of pigs after injection of irrigating fluid containing nitrous oxide; type: in vivo, pig
Text: A Telair N2O monitor type 2001 L was used to measure the nitrous oxide concentration. The measuring range of the instrument was 0–1000 ppm.
As the analyser was sensitive also to carbon dioxide an absorber containing soda lime to remove the carbon dioxide was arranged before the analyser. During the absorption process water is formed which together with the moisture in the exhaled air can disturb the measurements. A layer of silica gel after the soda lime absorber was used to eliminate this problem.
The sample gas pump gave a sample flow of 300 mL/min.
The pump was continuously pumping gas. The measured concentration was a time weighted average for the exhaled and inhaled gas.
The weight of the pig was 19 kg.
The weight of the pig was 21 kg. Ventilation as for pig. 1. First 300 mL of irrigating fluid were injected intraperitonally during 20 minutes. The initial decrease in nitrous oxide concentration was caused by placing the needle in the wrong place. Some mL were injected before the injection was stopped and the test restarted. The decrease is the decay phase from the first injection.
In test two 600 mL were administered intravenously during 20 minutes.
Weight 23 kg. Ventilation […], the rest as for pig 1. First a number of tests with intravenous injection of pulses of fluid were performed. The volumes added were 2, 10 and 20 mL. Approximately 1 mL/s was added.
Then 150 mL of fluid were administered intravenously during 20 minutes. The discontinuity in the diagram was caused by testing another ventilator setting which affected the reading so much that the data point was not used. After 40 minutes 600 mL of irrigating fluid were added intravenously during 20 minutes.
The nitrous oxde concentration values are measured concentrations minus the starting point value. In some cases a test was started while the nitrous oxide concentration from the previous test was still decreasing. As the base line was not stable, the values at the end of the decay phase are uncertain. This can be seen in FIG. 4, where it looks like the 150 mL concentration values are stabilizing at a higher level than the 600 mL values.

[2] = pig, in vivo
Method: To a bag with 3 L fluid 300 mL of nitrous oxide (=0,18 mg nitrous oxide/mL irrigagting fluid) were added. The nitrous oxide was measured with a 300 mL glass syringe and injected into the bag using the syringe connection. The temperature was abut 22° C. and the air pressure about 1015 mbar (not measured but estimated via meteorological service). Before the addition of nitrous oxide the gas in the bag was removed, about 1 mL remained. After the addition of nitrous oxide the bag was shaken until the nitrous oxide was dissolved. A gas bubble with a volume of abut 15 mL remained.
The weight of the pig was 19 kg. Ventilation 3L/min with 20 breaths per minute, 25% inhalation followed by 10% pause. At the first test 300 mL of irrigating fluid were injected intravenously during 20 min using a dosing pump.

[3] = intraperitoneal injection of irrigating fluid, exhaled air
[4] = intravenous injection of irrigating fluid, exhaled air

Row | decrease of concentration in exhaled air compared with ethanol ([1]; data normalised to similar peak heights, pig 1, intravenous) | time before the nitrous oxide concentration started to increase [1, 3] [min] | time to 50% of the final concentration after the start of the increase [1, 3] | time after start of injection until nitrous oxide concentration started to increase [1, 4] | time to 50% of the final concentration after the concentration started to increase [1, 4] | measured nitrous oxide concentration used in mass balance ([1]; pig 3, 30 mL/min irrigating fluid intravenously, time weighted average of exhaled and inhaled gas) [ppm] | exhaled nitrous oxide (mass balance) ([1]; pig 3, added amount of nitrous oxide 3,0 mL/min) | increase of nitrous oxide concentration per mL of irrigating fluid ([1]; pulses of fluid added intravenously (2, 10, 20 mL), exhaled air, pig 3) | time of peak reading after start of injection ([1]; pulses of fluid added intravenously, exhaled air) | highest measured ethanol concentration [2] [%] | Compound
1 | decreased much faster than the ethanol | 2.5 | about 5 minutes | about 15 seconds | about one | 520 | 3,0 mL/min | 10–15 ppm per mL | about 30 seconds | – | [N-]=[N+]=O [nitrous oxide]
2 | – | – | – | – | – | – | – | – | – | 0.20 | CCO [ethanol]
